Data reported in patent US20120258938A1, “Enzymatic Production or Chemical Synthesis and Uses for 5,7-Dienes and UVB Conversion Products Thereof” (priority 2008, published 2012).

How the values were obtained:
[1] = system: anti-CD3 stimulated DBA/1 Lac J spleen cells; experiment: Cytokine/chemokine production by anti-CD3 stimulated spleen cells (Luminex); type: cell-based, mouse; conditions: 5 days; for G-CSF / GM-CSF / IFNγ / IL-1α / IL-6 / IL-10 / IL-17 / IP-10 / KC / MCP-1: spleen cells + anti-CD3 (4 μg/ml) + analogue 10^−7 M, supernatant, one mouse; for Th2 cytokine (IL-10) production: anti-CD3, 10^−7 M
Experimental: Vitamin D analogues were solubilzed in absolute alcohol (EtOH) and added at 1:100 dilution to cultures of spleen cells from normal DBA/1 Lac J mice (Table 13). […] Therefore, changes are not due to decreased cell viability.
Spleen cells from three normal 8 wk old female DBA/1 Lac J mice were cultured in 96 well tissue culture plates in quadruplicate at 2×10^6 cells/ml in RPMI 1640 medium containing 9% FCS with and without anti-CD3 (4 μg/ml) and with anti-CD3+10^−7M natural vitamin D analogues for 5 days after which time supernatants were harvested and subjected to cytokine multiplex on a Luminex instrument using Milliplex Mouse Kit (values are pg/ml). The general trend in changes in cytokine levels were similar for each of the mice but some produced different levels of each cytokine for each culture additions. Data from one mouse are given and bold numbers indicate those that changed from anti-CD3 stimulated culture with vitamin D analogues added. There was no significant stimulation of IL-1 g, IL-2, IL-4, IL-5, IL-7, IL-9, IL-12 p70, IL-13, IL-15, MIP-2, RANTES or TNFα with the anti-CD3 MOAB.

CYP24 promoter = experiment: CYP24-Luc reporter in HaCaT keratinocytes; type: cell-based, human
From the text: Construct CYP24-Luc and VDRE-Luc constructs were a generous gift from Dr. Tai Cheng, Ph.D. (Boston University Medical Campus, Core Lab Director). It was originally developed by Vaisanen et al. (27). PLuc and NFκB-Luc construct was described previously (28-29). huVDR construct was a generous gift from Dr. D. Bikle. HaCaT keratinocytes were transfected with NFκB-Luc, CYP-24-Luc, VDRE-Luc and hVDR constructs using Lipofectamine Plus (Invitrogen, Carlsbad, Calif.) in DMEM medium with firefly luciferase reporter gene plasmid and with phRL-TK.
HaCaT keratinocytes were transfected with NFκB-Luc construct using Lipofectamine Plus (Invitrogen, Carlsbad, Calif.) in DMEM medium with firefly luciferase reporter gene plasmid and with phRL-TK (expresses Renilla luciferase and serves as normalization control; Promega, Madison, Wis.). After transfection cells were incubated for 24 h in complete medium, and then after change to fresh media treated with drug or vehicle (ethanol) at the concentration of 10 nM for 30 minutes, 1 h, 4 h, 16 h and 24 h. The firefly luciferase and Renilla luciferase signals were recorded with a TD-20/20 luminometer (Turner Designs, Sunnyvale, Calif.); background luminescence was subtracted and the resulting promoter specific firefly signal was divided by the Renilla signal (proportional to the number of transfected cells). The values obtained were divided by the mean of control (untreated) cells.

involucrin = experiment: Involucrin protein expression in HaCaT (flow cytometry, microscopy); type: cell-based, human; conditions: 24 h; for expression of involucrin: 10 nM; for increase in the expression of involucrin: flow cytometry
Human dermal fibroblasts = experiment: TGF-b1 induced collagen protein production by dermal fibroblasts; type: cell-based; conditions: collagenase sensitive protein; for TGF-b1 induced collagen protein production: [3H]-proline
Experimental: Human dermal fibroblasts grown from explant skin cultures at less than 10 subpassages were plated at 5×10^4 cells per well in 24 well Costar tissue culture plates and were grown to confluency. Complete MEM was then changed to serum free Complete MEM without non-essential amino acids. After 24 hours, culture medium was changed (450 μl/well) to the same and secosteroids listed in Table 14 were added in 10 μl absolute alcohol (ETOH) to a final concentration of 10^−9 and M, 3 replicate wells each. Vehicle control wells (n=6) contained 10 μl (ETOH). After 2 hour pre-incubation, hr TGF-b1 (R and D systems) was added to each well except ETOH wells at a final concentration of 5 ng/ml. After 48 hours of culture, plate wells were paused with 1μ Cl ^3[H]-proline. After 24 hours, culture supernatants were harvested and collagenase sensitive protein was determined as previously described (44).

HaCaT keratinocytes = experiment: [3H]-thymidine DNA synthesis in HaCaT keratinocytes; type: cell-based, human
In short: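 HaCaT cells in DMEM with 5% charcoal-treated FBS received vehicle (ethanol) or secosteroids for 48 hours, with [3H]-thymidine at 1 μCi/mL for the final 12 hours. Incorporated radioactivity from trypsin-harvested cells on glass fiber filters was counted by beta counter.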

| SMILES | G-CSF [1] [pg/mL] | GM-CSF [1] [pg/mL] | IFNγ [1] [pg/mL] | IL-1α [1] [pg/mL] | IL-6 [1] [pg/mL] | IL-10 [1] [pg/mL] | IL-17 [1] [pg/mL] | IP-10 [1] [pg/mL] | KC [1] [pg/mL] | MCP-1 [1] [pg/mL] | CYP24 promoter activity (CYP24 promoter) | expression of involucrin (involucrin) | increase in the expression of involucrin (involucrin; 10^−8 M) | TGF-b1 induced collagen protein production (Human dermal fibroblasts) | Th2 cytokine (IL-10) production [1] | keratinocyte proliferation compared with 1α,25-dihydroxycholecalciferol (HaCaT keratinocytes; HaCaT, 48 h) | other results |
| --- | --- | --- | --- | --- | --- | --- | --- | --- | --- | --- | --- | --- | --- | --- | --- | --- | --- |
| C=C1/C(=C\C=C2/CCC[C@]3(C)[C@@H]([C@H](C)CCCC(C)(C)O)CC[C@@H]23)C[C@@H](O)C[C@@H]1O [1α,25-dihydroxycholecalciferol, (5Z,7E)-9,10-secocholesta-5,7,10(19)-triene-1α,3β,25-triol, reference compound] | 11 | 7 | 0 | 1 | 12 | 1 | 1 | 5 | 3 | 197 | stimulated transcriptional activity of CYP24 promoter | increase of expression of involucrin | negligible | inhibited TGF-b1 induced collagen protein production | – | – | – |
| C=C1CC[C@H](O)C/C1=C/C=C1\CCC[C@@]2(C)[C@H]1CC[C@@H]2[C@@](C)(O)CCCC(C)C [20(OH)D3, (5Z,7E)-9,10-secocholesta-5,7,10(19)-triene-3β,20-diol] | 10 | 51 | 494 | 8 | 55 | 37 | 59 | 83 | 39 | 100 | failed to stimulate the CYP24 promoter activity | – | ~3.7 fold | inhibited TGF-b1 induced collagen protein production | increased | inhibit keratinocyte proliferation more potently than the control compound | DNA synthesis ([3H]-thymidine assay) (HaCaT keratinocytes; 48 h, 10^−8 and 10^−7 M): inhibited DNA synthesis; involucrin dMFI (involucrin; 10^−8 M): 71±8 |
| C=C1CC[C@H](O)C/C1=C/C=C1\CCC[C@]2(C)[C@@H](C(C)(O)CC(O)CC(C)C)CC[C@@H]12 (stereo partly drawn) [20,23-dihydroxycholecalciferol, (5Z,7E)-9,10-secocholesta-5,7,10(19)-triene-3β,20,23-triol] | 103 | 47 | 271 | 11 | 40 | 56 | 57 | 96 | 47 | 182 | stimulated activity of CYP24 promoter poorly | stimulated expression of involucrin gene | – | – | increased | inhibit keratinocyte proliferation more potently than the control compound | decrease in DNA synthesis (HaCaT keratinocytes; 0.1 nM): 30%; decrease in DNA synthesis (HaCaT keratinocytes; 10 nM): approximately 50% |
| C=C1CC[C@H](O)C/C1=C/C=C1\CCC[C@]2(C)[C@@H](C(C)=O)CC[C@@H]12 [pD3, (5Z,7E)-3β-hydroxy-9,10-secopregna-5,7,10(19)-trien-20-one] | – | – | – | – | – | – | – | – | – | – | – | – | – | inhibited TGF-b1 induced collagen protein production | – | – | proliferation (DNA synthesis) (HaCaT keratinocytes; HaCaT, 48 hr): inhibits proliferation; Collagen CPM/Well (mean ± SEM) × 10^−5 FB (Human dermal fibroblasts; hrTGF-b1 5 ng/ml, secosteroids at 10^−10M, 3[H]-proline): 181 ± 14 CPM/Well × 10^−5 FB |
